Data on four compounds can be found in PMC4770092, “Subnanometre enzyme mechanics probed by single-molecule force spectroscopy” (Nature Communications, 2016).

The target in assay [1] is T1, AdK 42-144 (Aquifex aeolicus, UniProt O66490, INS42C/INS144C).
T1 construct: full length, Cys inserted between 42/43 and 144/145; N-terminal spacer MAAKGELSG, C-terminal spacer and His6 kept; synthetic gene in pET11a, E. coli BL21(DE3); DNA handles on Cys in trap assay
Description: single-molecule optical tweezers, AP5A competition assay. Type of assay: binding. Particulars: 50 mM Tris pH 7.5, 200 mM KCl, about 10 pN load.

The target in assay [2] is T1, AdK 42-144. Description: single-molecule optical tweezers, lid closing/opening. The format is binding. The conditions noted are these: 50 mM Tris pH 7.5, 200 mM KCl; bisubstrate inhibitor.

T1 sequence (O66490 other isoform, or with tags, fused parts or gaps INS42C/INS144C): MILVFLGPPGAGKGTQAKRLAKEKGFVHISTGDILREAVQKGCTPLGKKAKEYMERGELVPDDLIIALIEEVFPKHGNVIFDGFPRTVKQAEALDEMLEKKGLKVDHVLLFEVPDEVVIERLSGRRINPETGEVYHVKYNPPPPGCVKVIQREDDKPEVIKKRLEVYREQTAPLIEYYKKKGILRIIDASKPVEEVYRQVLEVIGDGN

Take `Nc1ncnc2c1ncn2[C@@H]1O[C@H](COP(=O)(O)OP(=O)(O)O)[C@@H](O)[C@H]1O` [ADP]: the KD entry on AdK 42-144 [1] (Mg-ADP, AP5A competitor) was “nucleotides ADP (yellow), Mg-ADP (green) and Mg-ATP (blue)”. Regarding `Nc1ncnc2c1ncn2[C@@H]1O[C@H](COP(=O)(O)OP(=O)(O)OP(=O)(O)OP(=O)(O)OC[C@H]2O[C@@H](n3cnc4c(N)ncnc43)[C@H](O)[C@@H]2O)[C@@H](O)[C@H]1O` [AP4A], the “single-molecule optical tweezers, lid closing/opening” value at AdK 42-144 [2] was “We found that AP4A induces full closing of AdK indistinguishable from AP5A”. Same read-out and setting: with `Nc1ncnc2c1ncn2[C@@H]1O[C@H](COP(=O)(O)OP(=O)(O)OP(=O)(O)OP(=O)(O)OP(=O)(O)OP(=O)(O)OC[C@H]2O[C@@H](n3cnc4c(N)ncnc43)[C@H](O)[C@@H]2O)[C@@H](O)[C@H]1O` [AP6A] the entry was “AP6A binds with the same affinity as AP5A despite its significantly reduced closing distance”. `Nc1ncnc2c1ncn2[C@@H]1O[C@H](COP(=O)(O)OP(=O)(O)OP(=O)(O)O)[C@@H](O)[C@H]1O` [ATP]: the KD result on AdK 42-144 [1] (Mg-ATP, 1 μM AP5A competitor) was “nucleotides ADP (yellow), Mg-ADP (green) and Mg-ATP (blue)”.
